Values of other authors, collected in PMC5266543 (ACS infectious diseases, 2016).

Test system: M. tuberculosis H37Rv
Details: cited from earlier work

CC(=O)N(O)CCCP(=O)(O)O [Compound 2, FR900098]
MIC against Mtb: essentially inactive
